Experimental data published in PubChem BioAssay AID1205 (EPA DSSTox, 2008).
The source made the active and inactive calls.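 Rule for the calls: active = tumour findings in long-term animal cancer tests in more than one sex, species or organ; inactive = no tumour finding and more than one negative test.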

Test: DSSTox (CPDBAS) Carcinogenic Potency Database Summary MultiCellCall Results
Conditions: animal carcinogenicity bioassays, multi-cell call summary
From the text: The Carcinogenic Potency Database (CPDB) is a unique and widely used international resource of the results of over 6500 chronic, long-term animal cancer tests on over 1500 chemical substances. The CPDB provides easy access to the bioassay literature, with qualitative and quantitative analyses of both positive and negative experiments that have been published over the past 50 years in the general literature and by the National Cancer Institute/National Toxicology Program. The CPDB standardizes the diverse literature of cancer bioassays that vary widely in protocol, histopathological examination and nomenclature, and in the published author's choices of what information to provide in their papers. Results are reported in the CPDB for tests in rats, mice, hamsters, dogs, and nonhuman primates, and are based on the most positive result among all experiments for each sex-species. The DSSTox CPDBAS (all species) file incorporates data from the CPDB Summary Tables for the full list of over 1500 chemical substances tested in at least one species. A summary MultiCellCall, based on experimental bioassay results of one or more species, is provided in the DSSTox CPDBAS file (see Source URL) for more than 1150 chemical substances.
Associated TD50 values and tumor site details for the relevant species/sex experiment supporting the overall CPDBAS MultiSiteCall are provided in the full DSSTox CPDBAS file (see Comment) and the corresponding CPDBAS Species Bioassay in PubChem. ActivityScore is computed as follows: multispecies=50, multisex=30, multisite=20, with combination scores computed as sums of these values, e.g. multispecies+multisite=70.

| SMILES | outcome |
| --- | --- |
| C1CNCCN1 | inactive; multisex inactive |
| O=C1CCO1 | active; multisex active; multispecies active |
| CC(C)(Oc1ccc(C2CC2(Cl)Cl)cc1)C(=O)O (centres undefined) | active; multisite active; multisex active; multispecies active |
| Cc1ccc(S(=O)(=O)OCCN(C)N=O)cc1 | active; multisite active; multisex active |
| O=C(Oc1ccccc1)Oc1ccccc1 | inactive; multisex inactive |
| CC(C)(C)c1cc(C(C)(C)C)c(O)c(C(C)(C)C)c1 | inactive; multisex inactive |
| CC(CCl)OC(C)CCl (centres undefined) | active; multisite active; multisex active |
| Cn1c(=O)c2c(ncn2C)n(C)c1=O | inactive; multisex inactive; multispecies inactive |
| CC(=O)Nc1ccc(OCC(O)CNC(C)C)cc1 (centres undefined) | inactive; multisex inactive; multispecies inactive |
| O=NN1CCCCC1 | active; multisite active; multisex active; multispecies active |
| Nc1ccc(Cl)cc1N | active; multisite active; multisex active; multispecies active |
| O=NN1CCCC1 | active; multisite active; multisex active; multispecies active |
| Nc1ccc(S(=O)(=O)c2ccc(N)cc2)cc1 | active; multisite active |
| NC(=O)N(CCCO)N=O | active; multisex active |
| c1ccc(OCC2CO2)cc1 (centres undefined) | active; multisex active |
| O=C1C=CC(=O)C=C1 | active; multisex active |
| CC1(C)[C@H](C(=O)O[C@H](C#N)c2cccc(Oc3ccccc3)c2)[C@@H]1C=C(Br)Br | inactive; multisex inactive; multispecies inactive |
| CC(=O)O[C@]1(C(C)=O)CC[C@H]2[C@@H]3C=C(Cl)C4=CC(=O)[C@@H]5C[C@@H]5[C@]4(C)[C@H]3CC[C@@]21C | active; multisite active; multisex active |
| CC(CN1c2ccccc2Sc2ccccc21)N(C)C (centres undefined) | inactive; multisex inactive; multispecies inactive |
| ClC(Cl)(Cl)C(Cl)(Cl)Cl | active; multisite active; multisex active; multispecies active |
| C=CCl | active; multisite active; multisex active; multispecies active |
| Cc1ncc[nH]1 | active; multisite active; multisex active; multispecies active |
| CC1CO1 (centres undefined) | active; multisite active; multisex active; multispecies active |
| O=C(O)CCCC/C=C(\c1ccccc1)c1cccnc1 | inactive; multisex inactive; multispecies inactive |
| C=CCNN | active; multisite active; multisex active |

| SMILES | outcome |
| --- | --- |
| [N-]=[N+]=O | inactive; multisex inactive |
| O=NN(CC(=O)O)CC(=O)O | inactive; multisex inactive |
| NC(=O)N(CC(=O)O)N=O | active; multisite active; multisex active |
| CCN(N=O)C(=O)NCCO | active; multisite active; multisex active; multispecies active |
| ClCOCCl | active; multisite active; multisex active; multispecies active |
| FC(F)OC(F)(F)C(F)Cl (centres undefined) | inactive; multisex inactive |
| CN(C)C(=S)[S][Bi]([S]C(=S)N(C)C)[S]C(=S)N(C)C | inactive; multisex inactive |
| C/C=C/C(=O)Oc1c(C(C)CCCCCC)cc([N+](=O)[O-])cc1[N+](=O)[O-] (centres undefined) | inactive; multisex inactive |
| CCN(CC)C(=S)[S-].CCN(CC)C(=S)[S-].[Zn+2] | inactive; multisex inactive |
| CCN(N)C=O | active; multisite active; multisex active |
| O=C(O)c1ccccc1 | inactive; multisex inactive; multispecies inactive |
| COc1cc(S(C)=O)ccc1-c1nc2ccncc2[nH]1 (centres undefined) | active; multisex active |
| Nc1ccc2c(c1)C(=O)c1ccccc1C2=O | active; multisite active; multisex active; multispecies active |
| O=C1C(c2[nH]c3ccc(S(=O)(=O)O)cc3c2O)=Nc2ccc(S(=O)(=O)O)cc21 | inactive; multisex inactive; multispecies inactive |
| O=S(=O)([O-])[O-].[Cd+2] | active; multisex active |
| CS(=O)(=O)c1ccc([C@@H](O)[C@@H](CO)NC(=O)C(Cl)Cl)cc1 | inactive; multisex inactive |
| O=C1C(O)N=C(c2ccccc2F)c2cc(Cl)ccc2N1CCO (centres undefined) | inactive; multisex inactive |
| c1ccc2sc(SSc3nc4ccccc4s3)nc2c1 | inactive; multisex inactive |
| CC(=O)NCc1nc(-c2ccc([N+](=O)[O-])o2)no1 | active; multisite active |
| C[N+](C)(C)CCO | inactive; multispecies inactive |
| CN1CCC[C@H]1c1cccnc1 | inactive; multisex inactive |
| C=CCN(CC(O)CO)N=O (centres undefined) | active; multisite active |
| CN(C)C(=O)Nc1ccc(Cl)cc1 | active; multisite active |
| CC(=O)N(C(C)=O)c1cccc2c1Cc1ccccc1-2 | active; multisite active |
| ClC(Cl)Cl | active; multisite active; multisex active; multispecies active |

| SMILES | outcome |
| --- | --- |
| CN(N=O)C(=O)c1ccccc1 | active; multisite active; multisex active |
| CN1C(=O)C[C@@H](C(=O)N[C@@H](Cc2cnc[nH]2)C(=O)N2CCC[C@H]2C(N)=O)NC1=O | inactive; multisex inactive; multispecies inactive |
| Cc1cc(N)ccc1N | inactive; multisex inactive; multispecies inactive |
| C1CCC(C(CC2CCCCN2)C2CCCCC2)CC1 (centres undefined) | inactive; multisex inactive |
| C=Cc1ccc(C)cc1 | inactive; multisex inactive |
| Clc1nc(Cl)nc(Nc2ccccc2Cl)n1 | inactive; multisex inactive; multispecies inactive |
| CN1[C@@H]2CC(OC(=O)[C@@H](CO)c3ccccc3)C[C@H]1[C@@H]1O[C@@H]12 (some centres undefined) | inactive; multisex inactive; multispecies inactive |
| C#CC(OC(N)=O)(c1ccccc1)c1ccc(Cl)cc1 (centres undefined) | active; multisite active |
| COP(=O)(OC)OC=C(Cl)Cl | active; multisite active; multisex active; multispecies active |
| CC(Cl)Cl | inactive; multisex inactive; multispecies inactive |
| CCOC(=O)N(C)N=O | active; multisite active |
| CCOC(=O)[C@H](CCc1ccccc1)N[C@@H](C)C(=O)N1Cc2ccccc2C[C@H]1C(=O)O | inactive; multisex inactive; multispecies inactive |
| [K+] | active; multisex active |
| OB(O)O | inactive; multisex inactive |
| COc1ccc(C(=O)/C(Br)=C\C(=O)O)cc1 | active; multisite active; multisex active |
| O=S(=O)(O)c1cc(S(=O)(=O)O)c2c(N=Nc3ccccc3)c(O)ccc2c1 | inactive; multisex inactive; multispecies inactive |
| O=C1OC(c2ccc(O)cc2)(c2ccc(O)cc2)c2ccccc21 | active; multisite active; multisex active; multispecies active |
| C=CC(=O)OCC | active; multisex active; multispecies active |
| C=CCN(CCO)N=O | active; multisite active |
| O=C(O)CNCC(=O)O | inactive; multisex inactive |
| CCCCC1C(=O)N(c2ccccc2)N(c2ccccc2)C1=O | active; multisite active; multisex active; multispecies active |
| C1COCCO1 | active; multisite active; multisex active; multispecies active |
| Clc1ccc(-c2ccc(Cl)c(Cl)c2Cl)c(Cl)c1Cl | active; multisite active; multisex active |
| c1ccc2c(c1)Nc1ccccc1S2 | inactive; multisex inactive |
